PMC11801377, “A uniquely efficacious type of CFTR corrector with complementary mode of action” (Science Advances, 2024)

Assays:
WT-CFTR = target: T1, WT-CFTR (Homo sapiens, UniProt P13569); test: YFP quenching assay in CFBE-WT-CFTR-YFP cells; assay type: cell-based
T1 construct: host or cells: CFBE41o-

R560T CFTR = target: T2, R560T CFTR (Homo sapiens, UniProt P13569, R560T); test: CFTR correction (immunoblotting), HEK-TREx, R560T; assay type: cell-based; details: 48 hours, IDOR-3 2 μM, IDOR-4 0.4 μM, TEZ 2 μM + ELX 0.4 μM
T2 construct: expressed in transfected cells; host or cells: T-REx HEK293
T2 sequence (P13569 whole entry R560T): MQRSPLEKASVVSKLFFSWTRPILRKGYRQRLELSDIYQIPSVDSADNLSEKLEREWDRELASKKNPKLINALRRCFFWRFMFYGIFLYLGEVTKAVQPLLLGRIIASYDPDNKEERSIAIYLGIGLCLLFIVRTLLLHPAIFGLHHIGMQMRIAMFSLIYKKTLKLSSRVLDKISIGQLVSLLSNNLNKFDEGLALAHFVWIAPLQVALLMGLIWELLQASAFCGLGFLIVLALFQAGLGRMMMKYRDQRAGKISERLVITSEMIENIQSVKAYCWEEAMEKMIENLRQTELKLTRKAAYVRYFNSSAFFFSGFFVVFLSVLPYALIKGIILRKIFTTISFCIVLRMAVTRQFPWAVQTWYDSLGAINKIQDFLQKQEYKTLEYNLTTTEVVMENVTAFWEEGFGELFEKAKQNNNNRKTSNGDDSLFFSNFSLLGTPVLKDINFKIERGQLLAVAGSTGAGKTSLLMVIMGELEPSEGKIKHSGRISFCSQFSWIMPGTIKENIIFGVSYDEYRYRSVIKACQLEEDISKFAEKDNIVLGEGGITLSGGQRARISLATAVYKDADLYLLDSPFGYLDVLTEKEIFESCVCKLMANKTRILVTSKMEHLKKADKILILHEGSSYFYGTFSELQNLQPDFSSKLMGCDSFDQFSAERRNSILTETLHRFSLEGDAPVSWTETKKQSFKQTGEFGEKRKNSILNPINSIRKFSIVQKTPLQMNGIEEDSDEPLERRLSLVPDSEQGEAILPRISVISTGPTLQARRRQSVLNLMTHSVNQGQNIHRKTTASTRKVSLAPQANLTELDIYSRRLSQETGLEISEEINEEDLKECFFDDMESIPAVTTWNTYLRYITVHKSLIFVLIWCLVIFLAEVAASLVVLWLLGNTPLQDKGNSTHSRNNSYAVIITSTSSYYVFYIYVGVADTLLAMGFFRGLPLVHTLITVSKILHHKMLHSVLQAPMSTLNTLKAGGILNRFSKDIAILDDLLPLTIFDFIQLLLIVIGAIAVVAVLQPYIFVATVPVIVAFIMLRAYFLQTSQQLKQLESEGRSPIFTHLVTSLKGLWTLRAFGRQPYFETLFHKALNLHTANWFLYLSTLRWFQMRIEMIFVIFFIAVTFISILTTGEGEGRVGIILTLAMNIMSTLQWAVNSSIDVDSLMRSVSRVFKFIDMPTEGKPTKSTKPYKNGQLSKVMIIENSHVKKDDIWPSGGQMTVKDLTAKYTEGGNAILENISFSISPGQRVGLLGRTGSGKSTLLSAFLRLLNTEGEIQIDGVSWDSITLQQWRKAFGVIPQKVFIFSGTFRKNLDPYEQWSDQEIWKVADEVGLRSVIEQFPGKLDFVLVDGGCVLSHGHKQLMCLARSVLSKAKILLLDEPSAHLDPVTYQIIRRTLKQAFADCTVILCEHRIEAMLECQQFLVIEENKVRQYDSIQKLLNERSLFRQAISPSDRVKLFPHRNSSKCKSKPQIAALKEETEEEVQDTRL
From the text: The human CFTR expressing HEK cell pools with the mutations described below were generated by integrase-mediated homologous recombination of the CFTR sequence into the T-REx HEK293 background (Thermo Fisher Scientific). This expression system allows the tetracycline-inducible expression of genes of interest from one defined insertion site. Parental T-REx-HEK293 cells were cultivated in growth medium: Dulbecco’s modified Eagle’s medium + GlutaMAX-I (#31966, Life Technologies), 10% dialyzed FBS (Gibco, #26400), penicillin (100 U/ml), streptomycin (100 μg/ml), hygromycin B (0.1 mg/ml; Life Technologies), blasticidin (5 μg/ml; Invitrogen, #R210-01), and 0.1 mM nonessential amino acid solution (Invitrogen, #11140-035). Recombinant T-REx-HEK-CFTR cells were generated by lipofectamine transfection (Life Technologies) of plasmids containing mutated versions of CFTR (RefSeq NM_000492) and then cultivated in selection medium [growth medium containing Geneticin (1 mg/ml) (Invitrogen, #10131-027) instead of hygromycin]. The plasmid constructs were synthetized by GENEART (Thermo Fisher Scientific) and designed with the WT CFTR intron 5 to 6 (880 nucleotides) to prevent leaky expression issues during the cloning process in bacteria. […]

T1 sequence (P13569 whole entry): as the sequence (P13569 whole entry R560T) above, with T560R counted along it

COc1cc(CCNC(=O)C2CC(=O)N(C)C(CC(C)C)C(=O)N3CCCCC3C(=O)NC(Cc3ccccc3)COc3ccc4ncc(F)cc4c3C(=O)N2)on1 (centres unmarked) [IDOR-3]
increase in WT-CFTR function (WT-CFTR): ~ 2 fold
correction of R560T (R560T CFTR): highly effective
